Results from patent publication US6737383B1, “Herbicidal oxadiazolidines” (priority 1999, dated 2004).

How the values were obtained:
duck salad = experiment: Test B flood test duck salad; assay type: in vivo, Heteranthera limosa
Method in brief: (§1)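 Read-out is a visual response score from 0 (no effect) to 10 (complete control), assigned by comparison with untreated controls. Treatment was applied at the 2-leaf stage, and plants stayed in the greenhouse for twelve to sixteen days before scoring.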

purple nutsedge = experiment: Test B pre/postemergence purple nutsedge; assay type: in vivo, Cyperus rotundus
Method in brief: (§2)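 Test chemicals in a non-phytotoxic solvent mixture with surfactant were sprayed preemergence onto planted seeds and postemergence onto plants 2 to 18 cm tall (1- to 4-leaf stage). After twelve to sixteen days in a greenhouse, injury was visually rated against untreated controls from 0 (no effect) to 10 (complete control).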

soybean = experiment: Test B pre/postemergence soybean; assay type: in vivo, Glycine max
Method in brief: as §2

velvetleaf = experiment: Test B pre/postemergence velvetleaf; assay type: in vivo, Abutilon theophrasti
Method in brief: as §2

blackgrass = experiment: Test B pre/postemergence blackgrass; assay type: in vivo, Alopecurus myosuroides
Method in brief: as §2

sugar beet = experiment: Test B pre/postemergence sugar beet; assay type: in vivo, Beta vulgaris
Method in brief: as §2

surinam grass = experiment: Test B pre/postemergence surinam grass; assay type: in vivo, Brachiaria decumbens
Method in brief: as §2

smallflower flatsedge = experiment: Test B flood test smallflower flatsedge; assay type: in vivo, Cyperus difformis
Method in brief: as §1

bedstraw = experiment: Test B pre/postemergence bedstraw; assay type: in vivo, Galium aparine
Method in brief: as §2

morningglory = experiment: Test B pre/postemergence morningglory; assay type: in vivo, Ipomoea hederacea
Method in brief: as §2

rape = experiment: Test B pre/postemergence rape; assay type: in vivo, Brassica napus
Method in brief: as §2

corn = experiment: Test B pre/postemergence corn; assay type: in vivo, Zea mays
Method in brief: as §2

giant foxtail = experiment: Test B pre/postemergence giant foxtail; assay type: in vivo, Setaria faberii
Method in brief: as §2

cocklebur = experiment: Test B pre/postemergence cocklebur; assay type: in vivo, Xanthium strumarium
Method in brief: as §2

bamyardgrass = experiment: Test B flood test barnyardgrass; assay type: in vivo, Echinochloa crus-galli
Method in brief: as §1

pigweed = experiment: Test B pre/postemergence pigweed; assay type: in vivo, Amaranthus retroflexus
Method in brief: as §2

[1] = Rate 62 g/ha, headed Pre-emergence (flood test species), scale 0 to 10 (0 no effect, 10 complete control)
[2] = Rate 125 g/ha, Pre-emergence, flood test species, scale 0 to 10 where 0 is no effect and 10 is complete control
[3] = Rate 250 g/ha, Pre-emergence, flood-test species, scale 0 to 10, 0 is no effect, 10 is complete control
[4] = Rate 500 g/ha, headed Pre-emergence (flood test species), scale 0 to 10 (0 no effect, 10 complete control)
[5] = Preemergence, Rate 250 g/ha, scale 0 to 10, 0 is no effect, 10 is complete control
[6] = Preemergence, Rate 500 g/ha, scale 0 to 10 (0 no effect, 10 complete control)
[7] = Rate 62 g/ha, Postemergence, scale of 0 to 10 where 0 is no effect and 10 is complete control
[8] = Rate 125 g/ha, Postemergence, scale 0 to 10
[9] = Rate 500 g/ha, Postemergence, scale 0 to 10
[10] = Preemergence, Rate 62 g/ha, scale of 0 to 10 where 0 is no effect and 10 is complete control
[11] = Preemergence, Rate 125 g/ha, 0 is no effect, 10 is complete control

Compound: Cc1ccccc1-n1c(=O)on(C(=O)N(c2ccc(Cl)cc2Cl)C(C)C)c1=O [Compound 185]
- Ducksalad plant response rating (duck salad; [1]): 0
- Ducksalad plant response rating (duck salad; [2]): 0
- Ducksalad plant response rating (duck salad; [3]): 0
- Plant response rating, Ducksalad (duck salad; [4]): 0
- Nutsedge plant response rating (purple nutsedge; [5]): 0
- Nutsedge plant response rating (purple nutsedge; [6]): 0
- Nutsedge plant response rating (purple nutsedge; [7]): 0
- Nutsedge plant response rating (purple nutsedge; [8]): 0
- Plant response rating (0 to 10; 0 is no effect, 10 is complete control), Nutsedge (purple nutsedge; Rate 250 g/ha, Postemergence): 0
- Nutsedge plant response rating (purple nutsedge; [9]): 0
- Soybean plant response rating (soybean; [10]): 0
- Soybean plant response rating (0 to 10 scale) (soybean; [11]): 0
- Soybean plant response rating (soybean; [5]): 0
- Soybean plant response rating (soybean; [6]): 0
- Soybean plant response rating (soybean; [7]): 2
- Soybean plant response rating (soybean; [8]): 2
- Plant response rating (0 to 10; 0 is no effect, 10 is complete control), Soybean (soybean; Rate 250 g/ha, Postemergence): 3
- Soybean plant response rating (soybean; [9]): 3
- Velvetleaf plant response rating (velvetleaf; [10]): 0
- Velvetleaf plant response rating (velvetleaf; [5]): 0
- Velvetleaf plant response rating (velvetleaf; [6]): 0
- Velvetleaf plant response rating (velvetleaf; [8]): 0
- Plant response rating (0 to 10; 0 is no effect, 10 is complete control), Velvetleaf (velvetleaf; Rate 250 g/ha, Postemergence): 0
- Blackgrass plant response rating (blackgrass; [10]): 0
- Blackgrass plant response rating (0 to 10 scale) (blackgrass; [11]): 0
- Blackgrass plant response rating (blackgrass; [5]): 0
- Blackgrass plant response rating (blackgrass; [6]): 0
- Blackgrass plant response rating (blackgrass; [7]): 0
- Blackgrass plant response rating (blackgrass; [8]): 0
- Plant response rating (0 to 10; 0 is no effect, 10 is complete control), Blackgrass (blackgrass; Rate 250 g/ha, Postemergence): 0
- Blackgrass plant response rating (blackgrass; [9]): 0
- Sugarbeets plant response rating (sugar beet; [10]): 0
- Sugarbeets plant response rating (0 to 10 scale) (sugar beet; [11]): 0
- Sugarbeets plant response rating (sugar beet; [5]): 0
- Sugarbeets plant response rating (sugar beet; [6]): 0
- Sugarbeets plant response rating (sugar beet; [7]): 0
- Sugarbeets plant response rating (sugar beet; [8]): 0
- Plant response rating (0 to 10; 0 is no effect, 10 is complete control), Sugarbeets (sugar beet; Rate 250 g/ha, Postemergence): 0
- Sugarbeets plant response rating (sugar beet; [9]): 0
- B. signalgrass plant response rating (surinam grass; [10]): 0
- B. signalgrass plant response rating (0 to 10 scale) (surinam grass; [11]): 0
- B. signalgrass plant response rating (surinam grass; [5]): 0
- B. signalgrass plant response rating (surinam grass; [6]): 0
- B. signalgrass plant response rating (surinam grass; [7]): 0
- B. signalgrass plant response rating (surinam grass; Rate 125 g/ha, Postemergence, scale 0 (no effect) to 10 (complete control)): 0
- Plant response rating, B. signalgrass (surinam grass; Rate 250 g/ha, Postemergence, scale 0 to 10, 0 is no effect, 10 is complete control): 0
- B. signalgrass plant response rating (surinam grass; Rate 500 g/ha, Postemergence, scale 0 to 10, 0 no effect, 10 complete control): 0
- S. Flatsedge plant response rating (smallflower flatsedge; [1]): 0
- S. Flatsedge plant response rating (smallflower flatsedge; [2]): 0
- S. Flatsedge plant response rating (smallflower flatsedge; [3]): 0
- S. Flatsedge plant response rating (smallflower flatsedge; Rate 500 g/ha, Pre-emergence, flood test species, scale 0 to 10 (0 no effect, 10 complete control)): 0
- Bedstraw plant response rating (bedstraw; [10]): 0
- Bedstraw plant response rating (0 to 10 scale) (bedstraw; [11]): 0
- Bedstraw plant response rating (bedstraw; [5]): 0
- Bedstraw plant response rating (bedstraw; [6]): 0
- Bedstraw plant response rating (bedstraw; [7]): 0
- Bedstraw plant response rating (bedstraw; [8]): 0
- Plant response rating (0 to 10; 0 is no effect, 10 is complete control), Bedstraw (bedstraw; Rate 250 g/ha, Postemergence): 3
- Bedstraw plant response rating (bedstraw; [9]): 3
- Morningglory plant response rating (morningglory; [10]): 0
- Morningglory plant response rating (0 to 10 scale) (morningglory; [11]): 0
- Morningglory plant response rating (morningglory; [5]): 0
- Morningglory plant response rating (morningglory; [6]): 0
- Morningglory plant response rating (morningglory; [7]): 1
- Morningglory plant response rating (morningglory; [8]): 1
- Plant response rating (0 to 10; 0 is no effect, 10 is complete control), Morningglory (morningglory; Rate 250 g/ha, Postemergence): 1
- Morningglory plant response rating (morningglory; [9]): 2
- Rape plant response rating (rape; [10]): 0
- Rape plant response rating (0 to 10 scale) (rape; [11]): 0
- Rape plant response rating (rape; [5]): 0
- Rape plant response rating (rape; [6]): 0
- Rape plant response rating (rape; [7]): 0
- Rape plant response rating (rape; [8]): 0
- Plant response rating (0 to 10; 0 is no effect, 10 is complete control), Rape (rape; Rate 250 g/ha, Postemergence): 0
- Rape plant response rating (rape; [9]): 0
- Corn plant response rating (corn; [10]): 0
- Corn plant response rating (0 to 10 scale) (corn; [11]): 0
- Corn plant response rating (corn; [5]): 0
- Corn plant response rating (corn; [6]): 0
- Corn plant response rating (corn; [7]): 0
- Corn plant response rating (corn; [8]): 0
- Plant response rating (0 to 10; 0 is no effect, 10 is complete control), Corn (corn; Rate 250 g/ha, Postemergence): 0
- Corn plant response rating (corn; [9]): 0
- Giant foxtail plant response rating (giant foxtail; [10]): 0
- Giant foxtail plant response rating (0 to 10 scale) (giant foxtail; [11]): 5
- Giant foxtail plant response rating (giant foxtail; [5]): 9
- Giant foxtail plant response rating (giant foxtail; [6]): 9
- Giant foxtail plant response rating (giant foxtail; [7]): 0
- Giant foxtail plant response rating (giant foxtail; [8]): 0
- Plant response rating (0 to 10; 0 is no effect, 10 is complete control), Giant foxtail (giant foxtail; Rate 250 g/ha, Postemergence): 0
- Giant foxtail plant response rating (giant foxtail; [9]): 1
- Cocklebur plant response rating (0 to 10 scale) (cocklebur; [11]): 0
- Cocklebur plant response rating (cocklebur; [5]): 0
- Cocklebur plant response rating (cocklebur; [7]): 0
- Cocklebur plant response rating (cocklebur; [8]): 0
- Plant response rating (0 to 10; 0 is no effect, 10 is complete control), Cocklebur (cocklebur; Rate 250 g/ha, Postemergence): 0
- Cocklebur plant response rating (cocklebur; [9]): 2
- Barnyardgrass plant response rating (bamyardgrass; [1]): 0
- Barnyardgrass plant response rating (bamyardgrass; [2]): 0
- Barnyardgrass plant response rating (bamyardgrass; [3]): 0
- Plant response rating, Barnyardgrass (bamyardgrass; [4]): 0
- Redroot pigweed plant response rating (pigweed; [10]): 0
- Redroot pigweed plant response rating (0 to 10 scale) (pigweed; [11]): 0
- Redroot pigweed plant response rating (pigweed; [5]): 0
- Redroot pigweed plant response rating (pigweed; [6]): 0
- Redroot pigweed plant response rating (pigweed; [7]): 0
- Redroot pigweed plant response rating (pigweed; [8]): 1
- Plant response rating (0 to 10; 0 is no effect, 10 is complete control), Redroot pigweed (pigweed; Rate 250 g/ha, Postemergence): 3
- Redroot pigweed plant response rating (pigweed; [9]): 4
